According to patent US20180021360A1, “Combination Therapy Regimen For Treatment Of Selected HCV Genotypes” (JANSSEN PHARMACEUTICALS, INC., priority 2016, published 2018):

How the values were obtained:
OATP1B3 = biological target: T1, OATP1B3 (Homo sapiens, UniProt Q9NPD5); conditions: cited from earlier work
T1 sequence (Q9NPD5 1-702): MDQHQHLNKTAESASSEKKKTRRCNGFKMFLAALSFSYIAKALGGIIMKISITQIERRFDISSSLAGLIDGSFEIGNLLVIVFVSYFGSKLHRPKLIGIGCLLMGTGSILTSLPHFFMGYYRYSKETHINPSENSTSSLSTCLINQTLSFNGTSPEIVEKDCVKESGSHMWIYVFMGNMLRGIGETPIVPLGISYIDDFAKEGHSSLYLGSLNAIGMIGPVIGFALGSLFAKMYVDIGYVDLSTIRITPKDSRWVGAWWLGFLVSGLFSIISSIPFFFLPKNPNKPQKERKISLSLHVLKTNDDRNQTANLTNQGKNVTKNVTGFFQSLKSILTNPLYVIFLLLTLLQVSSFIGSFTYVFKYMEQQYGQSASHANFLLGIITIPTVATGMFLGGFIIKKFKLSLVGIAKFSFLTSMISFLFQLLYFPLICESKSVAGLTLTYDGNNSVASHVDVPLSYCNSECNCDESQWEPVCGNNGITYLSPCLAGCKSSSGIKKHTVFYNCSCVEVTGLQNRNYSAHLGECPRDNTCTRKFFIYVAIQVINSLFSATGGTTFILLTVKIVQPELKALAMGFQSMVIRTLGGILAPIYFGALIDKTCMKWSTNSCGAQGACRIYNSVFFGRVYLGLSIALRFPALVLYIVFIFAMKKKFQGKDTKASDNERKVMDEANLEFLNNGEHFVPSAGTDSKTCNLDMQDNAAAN

MRP2 = MRP2 (Homo sapiens, UniProt Q92887); conditions: cited from earlier work
MRP2, sequence (Q92887 whole entry): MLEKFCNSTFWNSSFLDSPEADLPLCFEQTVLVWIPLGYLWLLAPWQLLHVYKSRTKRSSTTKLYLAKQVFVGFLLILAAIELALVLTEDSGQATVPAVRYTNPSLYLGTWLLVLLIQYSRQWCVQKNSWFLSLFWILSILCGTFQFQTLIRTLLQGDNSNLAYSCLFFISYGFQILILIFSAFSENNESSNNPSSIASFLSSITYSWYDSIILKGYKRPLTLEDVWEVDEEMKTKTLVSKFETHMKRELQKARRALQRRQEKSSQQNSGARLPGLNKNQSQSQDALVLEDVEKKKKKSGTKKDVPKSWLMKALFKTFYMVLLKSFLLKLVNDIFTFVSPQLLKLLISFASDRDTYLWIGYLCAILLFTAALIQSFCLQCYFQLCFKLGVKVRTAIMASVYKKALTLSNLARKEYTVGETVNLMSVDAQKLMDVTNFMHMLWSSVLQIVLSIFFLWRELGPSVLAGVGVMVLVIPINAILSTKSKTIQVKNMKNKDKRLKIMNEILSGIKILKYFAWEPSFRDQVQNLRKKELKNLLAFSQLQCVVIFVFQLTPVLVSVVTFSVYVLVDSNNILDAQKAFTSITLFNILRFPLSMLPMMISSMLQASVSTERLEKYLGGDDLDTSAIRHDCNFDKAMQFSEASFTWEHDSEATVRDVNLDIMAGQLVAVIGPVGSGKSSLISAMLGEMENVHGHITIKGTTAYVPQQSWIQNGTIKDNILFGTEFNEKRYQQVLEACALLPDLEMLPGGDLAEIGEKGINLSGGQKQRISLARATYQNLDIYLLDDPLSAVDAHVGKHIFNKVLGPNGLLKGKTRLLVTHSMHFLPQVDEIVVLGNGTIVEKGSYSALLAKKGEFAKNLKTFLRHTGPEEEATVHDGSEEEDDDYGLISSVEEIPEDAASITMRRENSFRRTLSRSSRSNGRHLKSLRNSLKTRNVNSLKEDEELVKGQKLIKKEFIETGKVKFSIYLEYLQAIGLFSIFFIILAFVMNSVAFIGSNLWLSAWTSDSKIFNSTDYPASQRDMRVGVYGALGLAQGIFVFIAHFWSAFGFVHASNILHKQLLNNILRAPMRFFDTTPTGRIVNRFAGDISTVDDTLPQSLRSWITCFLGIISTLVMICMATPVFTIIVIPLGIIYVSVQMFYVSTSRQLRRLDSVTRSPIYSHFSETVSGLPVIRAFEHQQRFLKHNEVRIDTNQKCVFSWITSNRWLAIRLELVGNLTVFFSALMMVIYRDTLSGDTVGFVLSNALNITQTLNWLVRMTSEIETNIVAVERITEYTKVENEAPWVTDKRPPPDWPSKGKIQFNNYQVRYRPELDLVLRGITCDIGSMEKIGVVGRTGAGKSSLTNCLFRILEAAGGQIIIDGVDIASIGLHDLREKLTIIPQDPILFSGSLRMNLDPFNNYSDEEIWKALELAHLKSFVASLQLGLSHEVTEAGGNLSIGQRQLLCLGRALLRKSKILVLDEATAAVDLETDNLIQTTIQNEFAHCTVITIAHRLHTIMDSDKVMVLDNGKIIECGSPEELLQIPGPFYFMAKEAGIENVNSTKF

CYP = CYP inhibition potential; conditions: any CYP
[1] = Phase-1 drug-drug interaction study of Odalasvir, Simeprevir and Compound (III) in healthy volunteers; type: in vivo, human
Description: The following daily doses were employed:

SMILES: COC(=O)N[C@H](C(=O)N1[C@H](c2nc3cc(-c4cc5ccc4CCc4ccc(c(-c6ccc7[nH]c([C@@H]8C[C@@H]9CCCC[C@@H]9N8C(=O)[C@@H](NC(=O)OC)C(C)C)nc7c6)c4)CC5)ccc3[nH]2)C[C@@H]2CCCC[C@@H]21)C(C)C [Odalasvir, methyl [(2,)-1-[(2S,3aS,7aS)-2-[6-[11-[2-[(2S,3aS,7aS)-1-[(2S)-2-[(methoxycarbonyl)amino]-3-methylbutanoyl]octahydro-1H-indol-2-yl]-1H-benzimidazol-6-yl]tricyclo[8.2.2.2^4,7]hexadeca-1(12),4,6,10,13,15-hexaen-5-yl]-1H-benzimidazol-2-yl]octahydro-1H-indol-1-yl]-3-methyl-1-oxobutan-2-yl]carbamate]
- in vitro inhibition of OATP1B3 (OATP1B3): no inhibition
- in vitro inhibition of MRP2 (MRP2): no inhibition
- CYP inhibition potential (CYP): does not inhibit
- effect of Compound (III) on SMV or ODV ([1]; DDI study results): no apparent effect
- increase of exposure caused by SMV ([1]; DDI study results): 1.6 ×
- increase of exposure, effect of the three Compounds ([1]; DDI study results): 1.5 ×
- increase of exposure on co-administration of Compounds I, II and III ([1]; human in vivo study (Example 1)): 1.5 times
- effect of Compound (III) on bioavailability of SMV or ODV ([1]; human, in vivo): does not alter
- increase of exposure of ODV by SMV ([1]; human, in vivo): 1.6 fold
